Data: ChEMBL document CHEMBL1145546, “Interactive effects of polymethoxy flavones from Citrus on cell growth inhibition in human neuroblastoma SH-SY5Y cells” (Bioorg Med Chem, 2008)
Active and inactive are the calls of the source. The calls are words filed in the database; no cut-off is given here.

Tests used:
SH-SY5Y [1] = assay: Growth inhibition of human SHSY5Y cells assessed as viable cells after 48 hrs by Trypan blue dye exclusion test; type: functional, cell-based
SH-SY5Y [2] = assay: Reduction of hydrogen peroxide-induced apoptotic cell death in human SHSY5Y cells after 12 hrs; type: functional; set-up: scale not given: the % may be the effect or the level left
SH-SY5Y [3] = assay: Elevation of phosphorylated JNk level in hydrogen peroxide-treated human SHSY5Y cells at 30 uM after 3 hrs by Western blot analysis; type: functional, cell-based
SH-SY5Y [4] = assay: Elevation of phosphorylated p38 level in hydrogen peroxide-treated human SHSY5Y cells at 30 uM after 3 hrs by Western blot analysis; type: functional, cell-based
SH-SY5Y [5] = assay: Elevation of phosphorylated ERK level in hydrogen peroxide-treated human SHSY5Y cells at 30 uM after 3 hrs by Western blot analysis; type: functional, cell-based
SH-SY5Y [6] = assay: Reduction of hydrogen peroxide-induced apoptotic cell death in human SHSY5Y cells assessed as DNA ladder formation after 12 hrs; type: functional, cell-based

IC50 (SH-SY5Y [1]) [µM]	Compound	Activity (SH-SY5Y [2]) [%]	Activity (SH-SY5Y [3])	Activity (SH-SY5Y [4])	Activity (SH-SY5Y [5])	Activity (SH-SY5Y [6])
32.5	COc1ccc(-c2cc(=O)c3c(O)c(OC)c(OC)c(OC)c3o2)cc1OC [5-DEMETHYLNOBILETIN]	–	–	–	–	–
41.2	COc1ccc(-c2cc(=O)c3c(OC)c(OC)c(OC)c(OC)c3o2)cc1 [TANGERETIN]	–	–	–	–	–
–	COc1ccc(-c2cc(=O)c3c(OC)c(OC)c(OC)c(OC)c3o2)cc1OC [NOBILETIN]	30	Active	Active	Active	Active
